The values below come from article PMC3433420 (PLoS ONE, 2012).

Residues, ends and D or L forms follow the SMILES beside them.

As usually defined, the Kd is the free concentration of one partner at which half of the binding sites on the other are occupied at equilibrium, for simple one-to-one binding.

One test deals with VAV2 SH2 domain (Homo sapiens, UniProt P52735). As to the kind of experiment: FP saturation binding assay.
Test [1] has as its target PLCG2-NC tandem SH2 domains (Homo sapiens, UniProt P16885). As to the kind of experiment: FP saturation binding assay.
The target in another test is BLK SH2 domain (Homo sapiens, UniProt P51451). Kind of test: FP saturation binding assay.
Test [2] addresses T1, SH2 and PTB domains (Homo sapiens, UniProt O14796).
T1 construct: thioredoxin; made in house; host or cells: BL21(DE3)pLysS E. coli
T1 sequence (O14796 1-132): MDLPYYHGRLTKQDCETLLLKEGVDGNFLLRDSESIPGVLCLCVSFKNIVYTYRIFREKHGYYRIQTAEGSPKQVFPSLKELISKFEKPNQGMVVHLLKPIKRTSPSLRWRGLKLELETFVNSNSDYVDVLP
As to the kind of experiment: In-house protein microarrays (with or without 5 mM DTT), protein named per line. To be noted: protein SH2D1B. The format is binding. The method in brief: (§1)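 KD values come from rhodamine fluorescence of duplicate spots after subtraction of a thioredoxin control. Domains were printed at ~40 µM on aldehyde slides, blocked 1 h at room temperature in pH 7.8 HEPES/KCl buffer with 5 mM DTT and 1% BSA, then peptide-probed.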

Test [3] concerns the target T2, SH2 and PTB domains (Homo sapiens, UniProt Q8N5H7).
T2 construct: thioredoxin; made in house; host or cells: BL21(DE3)pLysS E. coli
The test is described as above. To be noted: protein SH2D3C, array fabrication # 39329. The format is binding. The method in brief:
as §1

The target in test [4] is T3, SH2 and PTB domains (Homo sapiens, UniProt P15498).
T3 construct: thioredoxin; made in house; host or cells: BL21(DE3)pLysS E. coli
The test is described as above. The format is binding. To be noted: protein VAV1, array fabrication # 39329. The method in brief:
as §1

Test [5] has as its target T4, SH2 and PTB domains (Homo sapiens, UniProt P06239).
T4 construct: thioredoxin; made in house; host or cells: BL21(DE3)pLysS E. coli
The description is as above. The format is binding. To be noted: protein LCK. The method in brief: as §1

Test [6] deals with T5, SH2 and PTB domains (Homo sapiens, UniProt O75159).
T5 construct: thioredoxin; made in house; host or cells: BL21(DE3)pLysS E. coli
The description is as above. The format is binding. To be noted: protein SOCS5; PM assay replicate # 39337; array fabrication # 39329. The method in brief:
as §1

Test [7] deals with T6, SH2 and PTB domains (Homo sapiens, UniProt O75815).
T6 construct: thioredoxin; made in house; host or cells: BL21(DE3)pLysS E. coli
Described as above. The format is binding. To be noted: protein BCAR3; PM assay replicate # 39337; array fabrication # 39329. The method in brief:
as §1

The target in test [8] is T7, SH2 and PTB domains (Homo sapiens, UniProt Q63HR2).
T7 construct: thioredoxin; made in house; host or cells: BL21(DE3)pLysS E. coli
The test is described as above. The format is binding. The conditions noted are these: protein TENC1, array fabrication # 39329. The method in brief: as §1

In test [9] the target is T8, SH2 and PTB domains (Homo sapiens, UniProt Q06124).
T8 construct: thioredoxin; made in house; host or cells: BL21(DE3)pLysS E. coli
The description is as above. The format is binding. The conditions noted are these: protein PTPN11-NC, array fabrication # 39329. The method in brief: as §1

The target in another test is T9, SH2D1B SH2 domain (Homo sapiens, UniProt O14796).
T9 sequence (O14796 5-101 limits assumed): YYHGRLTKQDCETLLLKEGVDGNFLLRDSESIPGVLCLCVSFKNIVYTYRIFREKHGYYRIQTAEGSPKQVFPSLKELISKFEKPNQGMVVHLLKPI
Kind of test: FP saturation binding assay.

A further test addresses NCK2 SH2 domain (Homo sapiens, UniProt O43639). As to the kind of experiment: FP saturation binding assay.
Test [10] addresses SYK-NC tandem SH2 domains (Homo sapiens, UniProt P43405). As to the kind of experiment: FP saturation binding assay.
Test [11] deals with T10, SH2 and PTB domains (Homo sapiens, UniProt Q8IZW8).
T10 construct: thioredoxin; made in house; host or cells: BL21(DE3)pLysS E. coli
Kind of test: In-house protein microarrays (with or without 5 mM DTT), protein named per line. The format is binding. The conditions noted are these: protein TNS4; PM assay replicate # 39307; array fabrication # 39286. The method in brief:
as §1

Test [12] has as its target T11, SH2 and PTB domains (Homo sapiens, UniProt P46108).
T11 construct: thioredoxin; made in house; host or cells: BL21(DE3)pLysS E. coli
The description is as above. The format is binding. To be noted: protein CRK; PM assay replicate # 39307; array fabrication # 39286. A digest of the protocol:
as §1

In test [13] the target is T12, SH2 and PTB domains (Homo sapiens, UniProt Q13322).
T12 construct: thioredoxin; made in house; host or cells: BL21(DE3)pLysS E. coli
Described as above. The format is binding. The conditions noted are these: protein GRB10; PM assay replicate # 39307; array fabrication # 39286. A digest of the protocol:
as §1

Test [14] has as its target T13, SH2 and PTB domains (Homo sapiens, UniProt Q8WV28).
T13 construct: thioredoxin; made in house; host or cells: BL21(DE3)pLysS E. coli
The description is as above. The format is binding. To be noted: protein BLNK; PM assay replicate # 39307; array fabrication # 39286. A digest of the protocol:
as §1

Setting [15] is: PM assay replicate # 39336, array fabrication # 39329.
Setting [16] is: PM assay replicate # 39603, array fabrication # 39392.

T4 sequence (P06239 whole entry, the tested form may be a part): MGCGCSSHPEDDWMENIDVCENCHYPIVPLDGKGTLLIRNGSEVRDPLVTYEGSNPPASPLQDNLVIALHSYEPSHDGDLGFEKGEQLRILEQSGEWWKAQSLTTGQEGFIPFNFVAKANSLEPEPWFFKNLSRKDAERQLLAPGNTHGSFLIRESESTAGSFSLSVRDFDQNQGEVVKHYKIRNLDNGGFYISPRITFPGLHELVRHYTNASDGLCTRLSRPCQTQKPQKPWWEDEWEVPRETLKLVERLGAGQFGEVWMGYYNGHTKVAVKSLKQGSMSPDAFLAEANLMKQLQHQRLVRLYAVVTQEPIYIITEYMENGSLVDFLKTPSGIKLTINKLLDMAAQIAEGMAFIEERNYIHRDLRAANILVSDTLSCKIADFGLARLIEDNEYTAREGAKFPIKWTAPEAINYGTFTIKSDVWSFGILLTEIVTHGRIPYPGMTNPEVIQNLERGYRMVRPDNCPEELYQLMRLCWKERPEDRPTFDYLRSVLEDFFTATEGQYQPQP
T8 sequence (Q06124 whole entry, the tested form may be a part): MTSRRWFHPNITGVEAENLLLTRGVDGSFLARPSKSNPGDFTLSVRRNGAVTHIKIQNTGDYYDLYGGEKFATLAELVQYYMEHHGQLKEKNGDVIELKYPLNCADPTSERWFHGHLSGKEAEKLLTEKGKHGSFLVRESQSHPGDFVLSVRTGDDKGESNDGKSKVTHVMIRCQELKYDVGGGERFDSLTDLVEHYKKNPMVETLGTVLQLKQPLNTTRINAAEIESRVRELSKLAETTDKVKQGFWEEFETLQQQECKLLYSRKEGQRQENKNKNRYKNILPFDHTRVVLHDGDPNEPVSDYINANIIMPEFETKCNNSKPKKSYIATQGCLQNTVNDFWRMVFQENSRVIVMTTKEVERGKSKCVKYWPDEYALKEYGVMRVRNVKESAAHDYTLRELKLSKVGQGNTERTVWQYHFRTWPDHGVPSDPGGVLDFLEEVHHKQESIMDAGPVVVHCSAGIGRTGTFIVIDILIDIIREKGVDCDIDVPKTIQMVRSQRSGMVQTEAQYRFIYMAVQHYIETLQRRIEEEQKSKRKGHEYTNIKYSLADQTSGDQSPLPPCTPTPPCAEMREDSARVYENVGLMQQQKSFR
T3 sequence (P15498 whole entry, the tested form may be a part): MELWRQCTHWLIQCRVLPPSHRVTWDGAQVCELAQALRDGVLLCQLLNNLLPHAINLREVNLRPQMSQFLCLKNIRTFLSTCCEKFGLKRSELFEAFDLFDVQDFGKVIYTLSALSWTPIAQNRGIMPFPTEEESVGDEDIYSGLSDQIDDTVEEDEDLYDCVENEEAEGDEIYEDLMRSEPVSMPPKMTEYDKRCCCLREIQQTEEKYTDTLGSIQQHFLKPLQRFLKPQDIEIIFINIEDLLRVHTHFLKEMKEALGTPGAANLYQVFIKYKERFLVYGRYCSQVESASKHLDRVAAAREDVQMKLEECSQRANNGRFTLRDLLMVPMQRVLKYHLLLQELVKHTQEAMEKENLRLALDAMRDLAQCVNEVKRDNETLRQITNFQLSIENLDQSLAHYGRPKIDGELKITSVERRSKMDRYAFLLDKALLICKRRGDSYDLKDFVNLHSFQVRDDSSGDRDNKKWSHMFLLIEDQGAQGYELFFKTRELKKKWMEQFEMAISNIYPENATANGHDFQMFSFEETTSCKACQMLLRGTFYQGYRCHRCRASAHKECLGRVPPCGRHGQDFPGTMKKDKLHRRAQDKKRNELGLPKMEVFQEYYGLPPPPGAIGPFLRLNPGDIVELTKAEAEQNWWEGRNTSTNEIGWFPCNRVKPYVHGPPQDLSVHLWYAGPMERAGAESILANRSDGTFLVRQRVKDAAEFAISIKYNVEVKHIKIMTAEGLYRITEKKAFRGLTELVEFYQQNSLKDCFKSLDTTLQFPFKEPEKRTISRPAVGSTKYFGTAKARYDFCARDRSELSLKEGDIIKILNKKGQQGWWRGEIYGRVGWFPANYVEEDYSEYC
T7 sequence (Q63HR2 whole entry, the tested form may be a part): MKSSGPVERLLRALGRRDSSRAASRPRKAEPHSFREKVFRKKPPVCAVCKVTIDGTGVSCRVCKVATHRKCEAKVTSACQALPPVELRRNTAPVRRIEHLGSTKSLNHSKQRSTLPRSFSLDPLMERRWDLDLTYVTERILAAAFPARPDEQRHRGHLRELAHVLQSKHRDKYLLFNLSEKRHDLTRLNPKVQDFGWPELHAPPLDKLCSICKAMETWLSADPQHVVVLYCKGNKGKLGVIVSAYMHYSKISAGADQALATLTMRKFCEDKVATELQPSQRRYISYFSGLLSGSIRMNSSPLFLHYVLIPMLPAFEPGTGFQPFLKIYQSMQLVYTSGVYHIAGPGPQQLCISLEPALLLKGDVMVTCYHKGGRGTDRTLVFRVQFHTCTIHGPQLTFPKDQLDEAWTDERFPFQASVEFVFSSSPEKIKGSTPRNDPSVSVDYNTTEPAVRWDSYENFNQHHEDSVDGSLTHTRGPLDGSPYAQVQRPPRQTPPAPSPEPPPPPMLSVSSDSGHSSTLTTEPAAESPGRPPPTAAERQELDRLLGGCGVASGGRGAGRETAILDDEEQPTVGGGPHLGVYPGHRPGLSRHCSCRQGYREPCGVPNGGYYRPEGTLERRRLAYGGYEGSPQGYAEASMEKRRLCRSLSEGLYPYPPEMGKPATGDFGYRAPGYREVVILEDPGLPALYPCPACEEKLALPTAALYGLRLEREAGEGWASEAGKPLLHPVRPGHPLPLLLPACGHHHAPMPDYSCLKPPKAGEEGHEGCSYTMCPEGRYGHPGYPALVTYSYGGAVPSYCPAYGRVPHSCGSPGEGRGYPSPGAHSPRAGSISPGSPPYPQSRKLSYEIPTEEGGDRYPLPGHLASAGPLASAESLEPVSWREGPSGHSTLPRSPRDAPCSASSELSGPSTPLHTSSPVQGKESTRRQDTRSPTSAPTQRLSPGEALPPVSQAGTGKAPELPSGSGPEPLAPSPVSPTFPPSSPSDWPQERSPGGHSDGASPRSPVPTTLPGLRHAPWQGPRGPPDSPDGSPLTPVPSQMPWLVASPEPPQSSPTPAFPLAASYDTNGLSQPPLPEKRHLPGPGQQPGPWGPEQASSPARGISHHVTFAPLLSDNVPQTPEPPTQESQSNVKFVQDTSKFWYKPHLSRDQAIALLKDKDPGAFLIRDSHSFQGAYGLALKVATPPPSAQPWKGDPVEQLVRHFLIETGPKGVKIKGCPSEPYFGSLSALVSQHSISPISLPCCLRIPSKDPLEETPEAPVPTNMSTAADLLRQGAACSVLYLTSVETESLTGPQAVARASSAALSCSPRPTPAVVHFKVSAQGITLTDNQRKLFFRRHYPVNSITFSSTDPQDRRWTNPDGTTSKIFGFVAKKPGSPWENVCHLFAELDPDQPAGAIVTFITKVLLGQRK
T2 sequence (Q8N5H7 whole entry, the tested form may be a part): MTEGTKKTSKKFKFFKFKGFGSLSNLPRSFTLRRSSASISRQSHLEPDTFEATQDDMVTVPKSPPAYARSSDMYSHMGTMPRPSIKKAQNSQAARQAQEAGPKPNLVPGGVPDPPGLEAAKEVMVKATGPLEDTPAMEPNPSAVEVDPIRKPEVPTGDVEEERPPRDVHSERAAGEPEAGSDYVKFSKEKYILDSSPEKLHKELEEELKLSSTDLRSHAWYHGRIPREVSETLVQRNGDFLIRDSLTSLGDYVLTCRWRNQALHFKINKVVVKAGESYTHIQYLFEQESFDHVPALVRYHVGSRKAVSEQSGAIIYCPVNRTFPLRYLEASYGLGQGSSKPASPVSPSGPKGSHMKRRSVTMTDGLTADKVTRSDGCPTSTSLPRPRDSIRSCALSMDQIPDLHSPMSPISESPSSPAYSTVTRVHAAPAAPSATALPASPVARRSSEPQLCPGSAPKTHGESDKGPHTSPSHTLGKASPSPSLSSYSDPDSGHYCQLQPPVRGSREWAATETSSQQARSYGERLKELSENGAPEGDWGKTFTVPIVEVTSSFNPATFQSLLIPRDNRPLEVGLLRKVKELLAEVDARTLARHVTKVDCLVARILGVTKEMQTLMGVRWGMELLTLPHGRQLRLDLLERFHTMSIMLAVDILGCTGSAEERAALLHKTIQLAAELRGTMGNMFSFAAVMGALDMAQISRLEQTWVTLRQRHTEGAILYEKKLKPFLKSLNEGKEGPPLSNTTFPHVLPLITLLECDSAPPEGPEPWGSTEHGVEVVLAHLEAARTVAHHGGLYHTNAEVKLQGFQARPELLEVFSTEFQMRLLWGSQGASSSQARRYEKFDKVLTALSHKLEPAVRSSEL
Chain of PLCG2-NC tandem SH2 domains (P16885 532-735 limits assumed): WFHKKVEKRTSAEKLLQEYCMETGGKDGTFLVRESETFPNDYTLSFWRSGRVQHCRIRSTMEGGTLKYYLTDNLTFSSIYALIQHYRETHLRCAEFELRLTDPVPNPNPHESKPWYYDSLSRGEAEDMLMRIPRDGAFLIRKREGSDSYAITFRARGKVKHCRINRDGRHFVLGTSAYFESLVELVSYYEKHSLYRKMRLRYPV
T12 sequence (Q13322 whole entry, the tested form may be a part): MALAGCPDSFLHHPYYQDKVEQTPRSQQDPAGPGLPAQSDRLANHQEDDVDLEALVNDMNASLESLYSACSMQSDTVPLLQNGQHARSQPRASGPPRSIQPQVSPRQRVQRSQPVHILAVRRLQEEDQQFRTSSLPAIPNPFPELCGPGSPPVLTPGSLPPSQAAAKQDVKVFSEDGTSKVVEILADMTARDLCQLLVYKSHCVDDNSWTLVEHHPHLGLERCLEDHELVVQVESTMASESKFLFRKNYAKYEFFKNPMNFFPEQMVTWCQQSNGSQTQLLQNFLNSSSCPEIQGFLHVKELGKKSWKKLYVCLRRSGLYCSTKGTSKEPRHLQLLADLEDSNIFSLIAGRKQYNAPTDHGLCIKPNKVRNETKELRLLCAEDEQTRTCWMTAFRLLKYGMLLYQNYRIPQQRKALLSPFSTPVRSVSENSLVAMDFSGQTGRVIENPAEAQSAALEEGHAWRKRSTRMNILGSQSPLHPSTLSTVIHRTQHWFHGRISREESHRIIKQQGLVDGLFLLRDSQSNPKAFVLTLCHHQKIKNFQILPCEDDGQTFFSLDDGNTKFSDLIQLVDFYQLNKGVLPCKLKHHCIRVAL

Consider `CC(C)C[C@H](NC(=O)[C@H](Cc1ccc(OP(=O)(O)O)cc1)NC(=O)[C@H](CCC(=O)O)NC(=O)[C@H](CCC(=O)O)NC(=O)[C@H](C)NC(=O)[C@@H](N)CC(=O)O)C(=O)N[C@H](C(=O)N1CCC[C@H]1C(=O)N[C@@H](CCC(N)=O)C(=O)N[C@@H](CCC(N)=O)C(=O)NCC(=O)N[C@@H](Cc1ccccc1)C(=O)N[C@@H](CC(=O)O)C(=O)O)C(C)C` [ErbB2 1023 13-mer] (HELM PEPTIDE1{D.A.E.E.[O=C([C@H](Cc1ccc(OP(=O)(O)O)cc1)N[*:1])[*:2]].L.V.P.Q.Q.G.F.D}$$$$V2.0), for which, on VAV2 SH2 domain, the Kd was 9.9 µM.
For the compound `CC(C)C[C@H](NC(=O)[C@H](CC(N)=O)NC(=O)[C@@H](N)CC(=O)O)C(=O)N[C@@H](Cc1ccc(O)cc1)C(=O)N[C@@H](Cc1ccc(OP(=O)(O)O)cc1)C(=O)N[C@@H](Cc1c[nH]c2ccccc12)C(=O)N[C@@H](CC(=O)O)C(=O)N[C@@H](CCC(N)=O)C(=O)N[C@@H](CC(=O)O)C(=O)N1CCC[C@H]1C(=O)N1CCC[C@H]1C(=O)N[C@@H](CCC(=O)O)C(=O)N[C@@H](CC(=O)O)C(=O)O` [ErbB2 1222 13-mer] (HELM PEPTIDE1{D.N.L.Y.[O=C([C@H](Cc1ccc(OP(=O)(O)O)cc1)N[*:1])[*:2]].W.D.Q.D.P.P.E.D}$$$$V2.0), the Kd was 6.4 µM in test [1] and 10.9 µM on BLK SH2 domain.
`CC(C)C[C@H](NC(=O)[C@@H]1CCCN1)C(=O)N[C@@H](CCC(N)=O)C(=O)N[C@@H](CCCNC(=N)N)C(=O)N[C@@H](Cc1ccc(OP(=O)(O)O)cc1)C(=O)N[C@@H](CO)C(=O)N[C@@H](CCC(=O)O)C(=O)N[C@@H](CC(=O)O)C(=O)N1CCC[C@H]1C(=O)N[C@H](C(=O)N[C@H](C(=O)N1CCC[C@H]1C(=O)N[C@@H](CC(=O)O)C(=O)O)C(C)C)[C@@H](C)O` [ErbB2 pY1112] (HELM PEPTIDE1{P.L.Q.R.[O=C([C@H](Cc1ccc(OP(=O)(O)O)cc1)N[*:1])[*:2]].S.E.D.P.T.V.P.D}$$$$V2.0): the “Kd” value at SH2 and PTB domains [2] (PM assay replicate # 39331, array fabrication # 39329) amounted to 2.03 µM; on SH2 and PTB domains [2] (setting [15]), 5.39 µM; at SH2 and PTB domains [2] (setting [16]), 0.49 µM.
Regarding `CC(C)C[C@H](NC(=O)[C@@H]1CCCN1C(=O)[C@H](C)NC(=O)[C@@H](NC(=O)[C@H](Cc1ccc(OP(=O)(O)O)cc1)NC(=O)CNC(=O)[C@H](CC(=O)O)NC(=O)[C@@H](NC(=O)[C@@H](N)CCC(=O)O)[C@@H](C)O)C(C)C)C(=O)N[C@H](C(=O)N[C@@H](CS)C(=O)N[C@@H](CO)C(=O)N[C@@H](CC(=O)O)C(=O)O)[C@@H](C)O` [ErbB2 pY1127], the “Kd” value at SH2 and PTB domains [3] (PM assay replicate # 39336) amounted to 1.52 µM; on SH2 and PTB domains [3] (PM assay replicate # 39337), 5.51 µM; on SH2 and PTB domains [4] (PM assay replicate # 39336) it was 0.19 µM; on SH2 and PTB domains [4] (PM assay replicate # 39337) it was 0.09 µM; at SH2 and PTB domains [5] (setting [15]), 0.80 µM; on SH2 and PTB domains [5] (PM assay replicate # 39337, array fabrication # 39329) it was 1.61 µM. The “Kd” value is 0.13 µM on SH2 and PTB domains [5] (setting [16]); 0.70 µM at SH2 and PTB domains [6]; 0.73 µM at SH2 and PTB domains [7]; 32.59 µM on SH2 and PTB domains [8] (PM assay replicate # 39336); 3.94 µM on SH2 and PTB domains [8] (PM assay replicate # 39337); 1.53 µM at SH2 and PTB domains [9] (PM assay replicate # 39336). Further, the “Kd” value at SH2 and PTB domains [9] (PM assay replicate # 39337) came out at 1.15 µM.
`CSCC[C@H](NC(=O)[C@H](Cc1ccc(OP(=O)(O)O)cc1)NC(=O)[C@H](CCC(=O)O)NC(=O)[C@H](Cc1ccc(O)cc1)NC(=O)CNC(=O)[C@@H](N)CC(C)C)C(=O)N[C@@H](CC(=O)O)C(=O)N[C@H](C(=O)NCC(=O)N[C@@H](CO)C(=O)N[C@@H](CC(=O)O)C(=O)N[C@@H](CC(C)C)C(=O)N[C@@H](CC(=O)O)C(=O)O)C(C)C` [ErbB3 1224 13-mer] (HELM PEPTIDE1{L.G.Y.E.[O=C([C@H](Cc1ccc(OP(=O)(O)O)cc1)N[*:1])[*:2]].M.D.V.G.S.D.L.D}$$$$V2.0): the values for the Kd on SH2D1B SH2 domain and on NCK2 SH2 domain were 1470 nM and 4.6 µM, respectively.
In [10], `CSCC[C@H](NC(=O)[C@H](Cc1ccc(OP(=O)(O)O)cc1)NC(=O)CNC(=O)[C@H](CCC(=O)O)NC(=O)[C@H](CCC(=O)O)NC(=O)[C@H](CC(=O)O)NC(=O)[C@H](CC(C)C)NC(=O)[C@H](CCC(=O)O)NC(=O)CNC(=O)[C@H](CCCNC(=N)N)NC(=O)[C@@H]1CCCN1)C(=O)N[C@H](C(=O)N1CCC[C@H]1C(=O)N[C@@H](CCSC)C(=O)N[C@@H](CCCNC(=N)N)C(=O)N[C@@H](CC(=O)O)C(=O)N[C@@H](CCCCN)C(=O)N[C@@H](CC(=O)O)C(=O)O)[C@@H](C)O` [ErbB4 1150 18-mer] (HELM PEPTIDE1{P.R.G.E.L.D.E.E.G.[O=C([C@H](Cc1ccc(OP(=O)(O)O)cc1)N[*:1])[*:2]].M.T.P.M.R.D.K.D}$$$$V2.0) returned a Kd of 6.19 µM.
Regarding `CC[C@H](C)[C@H](NC(=O)[C@H](CC(N)=O)NC(=O)[C@H](CC(N)=O)NC(=O)[C@H](CCCCN)NC(=O)[C@H](CC(C)C)NC(=O)[C@H](Cc1ccc(OP(=O)(O)O)cc1)NC(=O)[C@H](CCC(=O)O)NC(=O)[C@H](C)NC(=O)[C@H](CCCCN)NC(=O)CNC(=O)[C@H](CC(C)C)NC(=O)[C@@H](NC(=O)[C@H](CC(N)=O)NC(=O)[C@H](C)NC(=O)[C@@H](N)Cc1ccccc1)[C@@H](C)O)C(=O)N[C@@H](CC(C)C)C(=O)N[C@@H](CO)C(=O)N[C@@H](CC(=O)O)C(=O)O` [ErbB4 pY1221 (18-mer)] (HELM PEPTIDE1{F.A.N.T.L.G.K.A.E.[O=C([C@H](Cc1ccc(OP(=O)(O)O)cc1)N[*:1])[*:2]].L.K.N.N.I.L.S.D}$$$$V2.0), the “Kd” value on SH2 and PTB domains [11] is 0.32 µM; on SH2 and PTB domains [12], 64.54 µM; on SH2 and PTB domains [13], 0.23 µM; on SH2 and PTB domains [14], 4.00 µM.
